Reference: patent publication US20140335050A1, “METHODS, COMPOSITIONS, AND KITS FOR THE TREATMENT OF CANCER” (The General Hospital Corporation, priority 2011, published 2014)

Columns and labels:
Assay type in all cases: cell-based, human
[1] = test system: MU89 MART::EGFP cell line; experiment: Melan-A/MART-1 promoter-driven EGFP reporter, kinetics by flow cytometry; conditions: MU89 MART::EGFP (FIG. 11)
Description: FIG. 11 is a set of four graphs showing the kinetics of Melan-A/MART-1 increase. […] The same number of cells per well were plated in each well of a 24 well plate and drug was added on day zero. Each day cells were collected and assayed for that time point. Control untreated cells are shown for comparison. The data are from one representative experiment.
A kinetic analysis was performed to determine the effect of Hsp90 inhibition on Melan-A/MART-1 promoter activity over time. […] Reporter activity increases steadily for the first 72 hours of Hsp90 inhibition, and then plateaus. The need for continued presence of Hsp90 inhibitors in order for them to be effective (i.e. whether the drug can be removed after short exposure, or whether it must it be continually present) was assessed. […] To achieve full signal enhancement, it is desirable to retain the drug for at least 48 hours, after which the effect remains constant or slightly decreases.
The generation and application of EGFP reporter cells has been previously described. Briefly, a 1200 base pair human genomic DNA segment encompassing the Melan-A/MART-1 promoter was used to generate a construct driving expression of the EGFP reporter gene. Stable transfectants with this construct were generated in the low-antigen cell line A375 and the high-antigen line MM96L+ and MU89. The EGFP expression response patterns of these cells to IFN-beta and MAP kinase inhibitors recapitulates the antigen up-regulation of endogenous Melan-A/MART-1 induced by these agents.
(§1) Intracellular staining and flow cytometric analyses of cytoplasmic Melan-A/MART-1, and gp100 expression were performed as described previously. Cells were fixed with 1% formaldehyde, permeabilized with 0.1% saponin, stained with monoclonal antibodies to melanocyte antigens. Antibodies were obtained with specificity for: Melan-A/MART-1 from Vector Labs (Burlingame, Calif.); gp100/HMB45 from DakoCytomation (Carpinteria, Calif.) and then visualized with goat anti-mouse FITC-conjugated secondary antibody from Invitrogen (Frederick, Md.). The level of EGFP was determined by flow cytometry of unfixed cells washed and resuspended in 1×PBS. Surface staining of MHC Class I was carried out using the antibody W6/32 on cells harvested with Cell Stripper from MediaTech Inc. (Manassas, Va.) and carried out on ice.

[2] = test system: MU89 melanoma cell line; experiment: Antibody staining and flow cytometry (intracellular Melan-A/MART-1, gp100, TRP-2; surface MHC Class I/II); conditions: MU89
[3] = test system: MALME-3M melanoma cell line; experiment: Antibody staining and flow cytometry (intracellular Melan-A/MART-1, gp100, TRP-2; surface MHC Class I)
Description: (§2) Cells were fixed with 1% formaldehyde, permeabilized with 0.1% saponin, stained with monoclonal antibodies to melanocyte antigens. Antibodies were obtained with specificity for: MART-1 from Vector Labs (Burlingame, Calif.); gp100 HMB45 from DakoCytomation (Carpinteria, Calif.) and then visualized with goat anti-mouse FITC-conjugated secondary antibody from Invitrogen (Fredrick, Md.). The level of EGFP was determined by flow cytometry of unfixed cells that were washed and resuspended in 1×PBS.
(§3) Cells were plated at a density of 1×10^5 in 1 ml of medium in a 24-well plate and cultured for varying times as indicated in results. […] After incubation, cells were collected by trypsinization and then evaluated by flow cytometry.
as §1

[4] = test system: A375 melanoma cell line; experiment: as above
Description: as §2, §3, §1
(§4) Cell were seeded at 1×10^6 cells in a T25 flask with 10 ml of media for the 4 day IFN-beta pre-treatments. Cells were then harvested and plated in 24 well plate at 1×10^5 cells per well in 1 ml of media for 3 day treatments.
(§5) For surface staining of HLA Class I and II antigens, cells were harvested using CellStripper™ from Mediatech (Manassas, Va.). All staining steps were performed on ice. Following a first incubation with antibody to Class I (W6/32) or Class II (L243) for 30 minutes. Stained cells were washed twice with cold PBS and then stained with a goat anti-mouse FITC secondary antibody to allow for quantitative analysis by flow cytometry. For evaluation of cytoplasmic antigens, including Melan-A/MART-1 and gp100, cells were first fixed in paraformaldehyde and permeabilized with saponin as previously described. Staining for cytoplasmic antigens was carried out at room temperature (22° C.).

[5] = test system: MUX melanoma cell line; experiment: as above; conditions: MUX
Description: as §2, §3, §1, §4, §5

[6] = test system: U-118 MG glioma cell line; experiment: Antibody staining and flow cytometry (intracellular gp100; surface MHC Class I/II); conditions: U-118 MG; 3 days; IFN-beta 5000 Units/ml, 17-AEP 1.0, PU-H71 0.3, CCT018159 10.0 μg/ml
[7] = test system: U-87 MG glioma cell line; experiment: Antibody staining and flow cytometry (intracellular gp100; surface MHC Class I); conditions: U-87 MG; 3 days; IFN-beta 5000 Units/ml, 17-AEP 0.5, PU-H71 0.3, CCT018159 5.0 μg/ml
Description: as §2, §3, §1

[8] = 3 days, IFN-beta 5000 Units/ml, 17-AEP 1.0, PU-H71 0.3, CCT018159 10.0 μg/ml
[9] = 4 day IFN-β pre-treatment (5000 Units/ml), then 3 days with fresh IFN-β and the labelled HSP90 inhibitor (label IFN-β: no inhibitor), 17-AEP 1, PU-H71 0.3, CCT018159 10 mg/ml
[10] = 4 day IFN-β pre-treatment (5000 Units/ml), then 3 days without IFN-β with the labelled HSP90 inhibitor (label IFN-β: no inhibitor), 17-AEP 1, PU-H71 0.3, CCT018159 10 mg/ml
[11] = MALME-3M, 3 days, IFN-beta 5000 Units/ml, 17-AEP 1.0, PU-H71 0.3, CCT018159 10.0 μg/ml
[12] = 3 days, IFN-beta 5000 Units/ml, 17-AEP 0.5, PU-H71 0.15, CCT018159 2.5 μg/ml

`CO[C@H]1/C=C\C=C(/C)C(=O)NC2=CC(=O)C(NCCN3CCCC3)=C(C[C@@H](C)C[C@H](OC)[C@H](O)[C@@H](C)/C=C(\C)[C@@H]1OC(N)=O)C2=O` [17-AEP] was tested, and the “Time at which the fluorescent reporter signal is significantly enhanced (as early as)” value [1] was 2 days, the “Class I, geometric mean of surface staining (W6/32)” value [2, 8] was 54 and the “MART-1, geometric mean of intracellular staining” value (shortened to “MART-1, geometric mean”) [2, 8] was 130. For the same compound, the “TRP-2, geometric mean of intracellular staining” value (“TRP-2, geometric mean” for short) [2, 8] was 144, the “gp100, geometric mean of intracellular staining” value (shortened to “gp100, geometric mean”) [2, 8] was 342 and the “MHC Class I, geometric mean of surface staining (W6/32)” value (from here on “MHC Class I, geometric mean”) [2, 9] was 227. The “MHC Class I, geometric mean” value [2, 10] was 86, the “MHC Class I, geometric mean” value ([2]; single agent for 3 days, no IFN-β pre-treatment, IFN-β 5000 Units/ml) was 84 and the “MHC Class I, geometric mean” value ([2]; three days, IFN-β 5000 Units/ml) was 54. The “Class I, geometric mean of surface staining (W6/32)” value [3, 11] was 105, the “MART-1, geometric mean” value [3, 11] was 205 and the “TRP-2, geometric mean” value [3, 11] was 256. The “gp100, geometric mean” value [3, 11] was 839, the “MHC Class I, geometric mean” value ([3]; MALME, three days, IFN-β 5000 Units/ml) was 105 and the “Class I, geometric mean of surface staining (W6/32)” value [4, 12] was 67. For the same compound, the “MART-1, geometric mean” value [4, 12] was 11, the “TRP-2, geometric mean” value [4, 12] was 31 and the “gp100, geometric mean” value [4, 12] was 22. For the same compound, the “MHC Class I, geometric mean” value ([4]; 4 day IFN-β pre-treatment (5000 Units/ml), then 3 days with fresh IFN-β and the labelled HSP90 inhibitor (label IFN-β: no inhibitor), 17-AEP 0.5, PU-H71 0.15, CCT018159 2.5) was 144, the “MHC Class I, geometric mean” value ([4]; 4 day IFN-β pre-treatment (5000 Units/ml), then 3 days without IFN-β with the labelled HSP90 inhibitor (label IFN-β: no inhibitor), 17-AEP 0.5, PU-H71 0.15, CCT018159 2.5) was 90 and the “MHC Class I, geometric mean” value ([4]; single agent for 3 days, no IFN-β pre-treatment, IFN-β 5000 Units/ml, 17-AEP 0.5, PU-H71 […], CCT018159 2.5) was 109. For the same compound, the “MHC Class I, geometric mean” value ([4]; three days, IFN-β 5000 Units/ml, 17-AEP 0.5, PU-H71 […], CCT018159 2.5) was 67, the “Class I, geometric mean of surface staining (W6/32)” value [5, 8] was 219 and the “MART-1, geometric mean” value [5, 8] was 19. The “TRP-2, geometric mean” value [5, 8] was 48, the “gp100, geometric mean” value [5, 8] was 34 and the “MHC Class I, geometric mean” value [5, 9] was 615. The “MHC Class I, geometric mean” value [5, 10] was 496, the “MHC Class I, geometric mean” value ([5]; single agent for 3 days, no IFN-β pre-treatment, IFN-β 5000 Units/ml, 17-AEP 1 μg/ml, PU-H71 0.3 μg/ml, CCT018159 10 μg/ml) was 286 and the “Class I, geometric mean of surface staining (W6/32)” value [6] was 117. The “gp100, geometric mean” value [6] was 61, the “Class I, geometric mean of surface staining (W6/32)” value [7] was 66 and the “gp100, geometric mean” value [7] was 51.
